Molecules are shown by their SMILES.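 Exposure lasted 48 hours, with cells grown in 96-well plates and compounds tested at five concentrations. The concentration for 50% growth inhibition is given as GI50. At the TGI there is no net growth.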

Test in all cases: DTP human tumour cell line panel, 48 h
Assay [1] has as its system UACC-62 melanoma.
Assay [2] relates to SNB-75 CNS.
The test system of assay [3] is OVCAR-3 ovarian.
Assay [4] has as its system SK-OV-3 ovarian.
The subject of assay [5] is NCI-H226 lung.
The test system of assay [6] is 786-0 renal.
The test system of assay [7] is A549 NSCLC.
Assay [8] has as its system HCT-15 colon.
Assay [9] concerns UACC-257 melanoma.
Assay [10] has as its system CCRF-CEM leukemia.

With `COC(=O)c1cc(O)c2cc3c(cc2c1-c1cc(OC)c(OC)c(OC)c1)OCO3`, the GI50 (as a rule, the concentration giving 50% growth inhibition) in assay [1] was 1.17 µM; in assay [2], 1.37 µM; in assay [3] it was 0.325 µM; in assay [4], 3.02 µM; in [5], 5.12 µM; in [6] it was 6.23 µM. In addition, the GI50 was 0.762 µM in assay [7], 0.738 µM in [8] and 1.8 µM in assay [9]. In addition, the TGI (usually the concentration at which net growth stops) in assay [1] is more than 100 µM; in assay [2], 32 µM; in assay [3] it was 1.15 µM; in assay [4], more than 100 µM; in assay [5], more than 100 µM; in assay [6], more than 100 µM. Moreover, the TGI in assay [7], in assay [8] and in assay [9] was more than 100 µM each time.
Take `[N-]=[N+]=NC(c1cn(C2CC(O)C(CO)O2)c(=O)[nH]c1=O)C(Cl)I` (stereo not given): the TGI in assay [1], in [2], in assay [3], in assay [4], in assay [5] and in assay [6] was more than 100 µM throughout. The TGI in assay [7], in assay [8] and in assay [9] was more than 100 µM in each case.
Take `O=[P+](O)c1ccsc1`: the concentration for total growth inhibition (TGI) in [1], in assay [4], in [6], in [7], in assay [10] and in assay [8] was more than 100 µM each time.
Turning to `COc1cc(C2SCC(=O)N2c2ncc(C)s2)cc(OC)c1OC` (stereo not given), the GI50 in assay [1] is 12.5 µM; in assay [2] it was 14.4 µM; in [3], 14.3 µM; in assay [5] it was more than 50 µM; in assay [6], more than 50 µM; in assay [7] it was 45.4 µM. Besides, the GI50 in [8] was 16.3 µM; in assay [9], more than 50 µM. The concentration for total growth inhibition (TGI) in assay [1] is 49.4 µM; in assay [2], more than 50 µM; in [3] it was 44.8 µM; in [5], more than 50 µM; in assay [6], more than 50 µM; in [7], more than 50 µM. Further, the TGI in [8] and in assay [9] was more than 50 µM throughout.
As for `C[C@]12CC/C(=N\O)C=C1CC[C@@H]1C2CC[C@@]2(C)C1CC[C@@H]2OC1CCCCO1` (stereo not given in full), the TGI in assay [1] was more than 10 µM; in assay [2], 33.2 µM; in assay [3], 31.9 µM; in [4], 36.3 µM; in assay [6], 33.3 µM; in assay [7], 53 µM. In addition, the TGI in assay [8] came out at 43.2 µM; in [9] it was 34.6 µM.
Turning to `CO/N=C(\C)c1ccc(Nc2cc(-c3ccccc3)nc3ccc(OC)cc23)cc1`, the GI50 in assay [1] is 1.97 µM; in [2], 23 µM; in [4] it was 15.2 µM; in assay [5] it was 2.25 µM; in [6], 2.17 µM; in assay [7], 4.28 µM. Moreover, the GI50 in assay [8] was 3.17 µM; in [9], 4.64 µM. The TGI is 4.41 µM in assay [1]; more than 100 µM in assay [2]; 60.4 µM in assay [4]; 5.63 µM in assay [5]; 4.5 µM in assay [6]; 70.2 µM in [7]. Besides, the TGI in [8] was 11 µM; in assay [9] it was more than 100 µM.
As for `COc1ccc(C2SCC(=O)N2NC(=O)c2ccc(NC(C)=O)cc2)c(OC)c1` (stereo not given), the TGI in assay [1], in [2], in assay [3], in assay [4], in assay [5] and in [6] was more than 100 µM throughout. Further, the TGI in assay [7], in assay [8] and in assay [9] was more than 100 µM each time.
For the molecule `CC(C)([NH-])CO.CC(C)([NH-])CO.[Cl][Cd][Cl]`, the GI50 in assay [1] was 7.82 µM; in assay [3], 20.2 µM; in assay [5] it was 7.84 µM; in assay [6], 16.6 µM; in [7], 30.2 µM; in [10], 15.9 µM. Also, the values for the GI50 in [8] and in [9] were 20.3 µM and more than 100 µM, respectively. The TGI in assay [1] was 25 µM; in assay [3], 38 µM; in assay [5], 20.9 µM; in assay [6], 31.3 µM; in assay [7], more than 100 µM; in assay [10], 38.8 µM. Also, the results for the TGI in assay [8] and in [9] were 41.4 µM and more than 100 µM, respectively.
In the case of `Nc1nc2c(ncn2C2C=CC(CO)C2)c(=O)[nH]1` (stereo not given), the TGI in [1], in [2], in assay [3], in assay [4], in assay [5] and in [6] was more than 100 µM throughout. The TGI in assay [7], in assay [8] and in [9] was more than 100 µM each time.
For the molecule `Oc1ccc(C(c2ccc(O)cc2)c2ccc(O)cc2)cc1`, the TGI is 29.8 µM in assay [1]; 42 µM in assay [4]; 67.3 µM in assay [5]; 34.8 µM in assay [6]; more than 100 µM in assay [7]; 92.6 µM in assay [10]. The results for the TGI in assay [8] and in assay [9] were 55.3 µM and 52.4 µM, respectively.
